The text below walks through data of US6177447A (Universiteit van Amsterdam, priority 1996, dated 2001).

In test [1] the target is T1, lysosomal a-glucosidase (Homo sapiens, UniProt P10253). The test is described as follows: purified lysosomal a-glucosidase activity towards 4MU-a-glucoside. It is filed as biochemical.
The subject of another test is chitotriosidase. The test is described as follows: chitotriosidase secretion by cultured macrophages. The following applies: Homo sapiens, Macrophage, 96 h, 4 days, relative to no inhibitor (100%). Format: cell-based, human.
Test [2] concerns the target T2, glucosylceramidase (Homo sapiens, UniProt Q9HCG7).
T2 sequence (Q9HCG7 1-927): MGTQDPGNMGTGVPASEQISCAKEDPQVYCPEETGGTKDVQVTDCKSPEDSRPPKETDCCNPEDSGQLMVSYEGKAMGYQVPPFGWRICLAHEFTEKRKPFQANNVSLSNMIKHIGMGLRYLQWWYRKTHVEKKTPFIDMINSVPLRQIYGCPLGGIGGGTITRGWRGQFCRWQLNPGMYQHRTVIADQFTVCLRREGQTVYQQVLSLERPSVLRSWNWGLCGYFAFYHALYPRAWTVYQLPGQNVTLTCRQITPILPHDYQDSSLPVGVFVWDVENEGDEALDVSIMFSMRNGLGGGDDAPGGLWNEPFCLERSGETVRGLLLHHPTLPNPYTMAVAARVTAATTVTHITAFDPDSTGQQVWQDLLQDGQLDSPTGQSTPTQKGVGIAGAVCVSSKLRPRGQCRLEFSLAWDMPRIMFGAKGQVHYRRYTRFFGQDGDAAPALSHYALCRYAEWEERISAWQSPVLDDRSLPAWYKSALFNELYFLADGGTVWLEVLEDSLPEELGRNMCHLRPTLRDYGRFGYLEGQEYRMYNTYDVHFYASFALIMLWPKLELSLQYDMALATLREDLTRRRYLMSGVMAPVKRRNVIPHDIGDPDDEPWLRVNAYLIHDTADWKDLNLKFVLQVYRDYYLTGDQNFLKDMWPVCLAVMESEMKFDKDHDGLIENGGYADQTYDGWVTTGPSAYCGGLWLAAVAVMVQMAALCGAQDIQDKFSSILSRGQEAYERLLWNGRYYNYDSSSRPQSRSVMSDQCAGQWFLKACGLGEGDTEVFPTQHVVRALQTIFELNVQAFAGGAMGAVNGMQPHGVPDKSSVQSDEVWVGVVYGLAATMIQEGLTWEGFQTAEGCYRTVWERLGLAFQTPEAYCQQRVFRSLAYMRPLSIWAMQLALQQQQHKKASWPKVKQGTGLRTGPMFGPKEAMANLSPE
The test is described as follows: glucosylceramidase activity towards 4MU-b-glucoside in conduritol B-epoxide pre-treated membrane suspension from human spleen. The settings on record: for inhibition of glucosylceramidase, in words: comparison among N-alkyl derivatives.

Test [3] deals with T2, glucosylceramidase. The test can be described thus: glucosylceramidase activity in intact melanoma cells (4MU-b-glucoside, conduritol B-epoxide insensitive). It is filed as cell-based. The arrangement: endogenous in cells.
Test [4] concerns the target T3, glucocerebrosidase (Ceredase) (Homo sapiens, UniProt P04062).
T3 construct: purchased Genzyme Corp. Boston,USA; host or cells: human placenta
T3 sequence (P04062 40-536): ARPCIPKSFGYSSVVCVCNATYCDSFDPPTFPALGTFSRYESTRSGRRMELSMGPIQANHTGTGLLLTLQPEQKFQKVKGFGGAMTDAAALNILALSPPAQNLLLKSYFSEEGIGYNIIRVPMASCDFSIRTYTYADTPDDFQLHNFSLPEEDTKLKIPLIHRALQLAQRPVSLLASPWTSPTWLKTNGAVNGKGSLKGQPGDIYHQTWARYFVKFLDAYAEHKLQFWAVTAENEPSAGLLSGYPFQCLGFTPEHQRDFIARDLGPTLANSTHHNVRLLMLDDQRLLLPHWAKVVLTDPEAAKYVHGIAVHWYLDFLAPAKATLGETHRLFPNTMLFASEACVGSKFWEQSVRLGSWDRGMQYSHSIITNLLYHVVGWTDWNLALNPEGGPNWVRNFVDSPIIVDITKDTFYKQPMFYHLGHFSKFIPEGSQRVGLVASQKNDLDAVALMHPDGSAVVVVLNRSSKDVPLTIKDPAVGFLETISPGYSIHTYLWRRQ
The test is described as follows: activity of soluble human placental glucocerebrosidase (Ceredase) towards 4MU-b-glucoside. It is filed as biochemical. The following applies: soluble enzyme, 0.25% sodium taurocholate, 0.1% Triton X-100, pH 5.2; read-out: apparent Ki GLUCOCEREBROSIDASE CEREDASE

Test [5] has as its target T4, glucocerebrosidase (Homo sapiens, UniProt P04062).
T4 sequence (P04062 40-536): T3 sequence (P04062 40-536)
The test can be described thus: glucocerebrosidase activity in intact melanoma cells (4MU-b-glucoside, conduritol B-epoxide sensitive). Format: cell-based. The arrangement: the hydrolysis of 4MU-b-glucoside by cultured melanoma cells; endogenous in cells.

Test [6] has as its target T4, glucocerebrosidase. The test can be described thus: conduritol B-epoxide inhibitable glucocerebrosidase activity in membrane fraction from human spleen. It is filed as biochemical. The following applies: membrane suspension, 4MU-b-glucoside, pH 5.2; read-out: apparent Ki GLUCOCEREBROSIDASE MEMBRANES
A further test concerns the target T5, glycogen synthase (Rattus norvegicus, UniProt P17625).
T5 construct: endogenous in cells; host or cells: rat hepatocytes
T5 sequence (P17625 1-704): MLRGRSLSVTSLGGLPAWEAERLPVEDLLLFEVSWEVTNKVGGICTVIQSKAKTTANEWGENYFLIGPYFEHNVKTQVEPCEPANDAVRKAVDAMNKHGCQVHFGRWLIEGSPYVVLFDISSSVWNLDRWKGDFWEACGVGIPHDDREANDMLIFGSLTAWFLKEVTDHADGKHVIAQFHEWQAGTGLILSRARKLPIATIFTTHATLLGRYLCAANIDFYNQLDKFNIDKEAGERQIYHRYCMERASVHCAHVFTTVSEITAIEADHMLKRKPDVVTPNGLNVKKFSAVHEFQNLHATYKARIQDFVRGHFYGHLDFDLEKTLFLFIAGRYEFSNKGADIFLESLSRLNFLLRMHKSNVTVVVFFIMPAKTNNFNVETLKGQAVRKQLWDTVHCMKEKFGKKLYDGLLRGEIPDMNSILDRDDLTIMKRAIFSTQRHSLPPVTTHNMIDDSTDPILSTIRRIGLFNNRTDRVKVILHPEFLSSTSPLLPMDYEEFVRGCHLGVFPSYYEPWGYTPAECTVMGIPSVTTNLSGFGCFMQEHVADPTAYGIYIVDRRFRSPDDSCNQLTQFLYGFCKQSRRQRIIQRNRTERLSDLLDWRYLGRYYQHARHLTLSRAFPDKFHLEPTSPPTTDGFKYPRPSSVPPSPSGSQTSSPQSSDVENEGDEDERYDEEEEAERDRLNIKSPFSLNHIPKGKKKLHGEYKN
The test is described as follows: glycogen synthase in rat hepatocytes. Format: cell-based. The following applies: at IC50 concentration for glucosylceramidase.

Test [7] deals with T1, lysosomal a-glucosidase. The test is described as follows: lysosomal a-glucosidase in cultured melanoma cells. It is filed as cell-based. The arrangement: endogenous in cells. The settings on record: at IC50 concentration for glucosylceramidase.
Setting [8] is: read-out: IC50 GLUCOSYLCERAMIDASE
Setting [9] is: read-out: apparent Ki GLUCOSYLCERAMIDASE, membrane suspension, 4MU-b-glucoside, pH 5.2, competitive inhibition assumed.
[10] abbreviates: intact melanoma cells, read-out: IC50 GLUCOCEREBROSIDASE
Setting [11] is: 4MU-a-glucoside, pH 4.0, read-out: apparent Ki A-GLUCOSIDASE

Where two headings read alike, the source gives them in different places.

In turn, `CCCCN1C[C@H](O)[C@@H](O)[C@H](O)[C@H]1CO` [BUTYLDNJ, butyl-deoxynojirimycin] yielded a Ki on lysosomal a-glucosidase [1] of 6.43 µM. In the test on chitotriosidase (0.5 uM), the activity at 0.5 µM amounted to 68%. The activity at 5 µM with chitotriosidase (5 uM) amounted to 49%. In addition, in the test with chitotriosidase (50 uM), the activity at 50 µM came to 28%.
With `CCCCCCN1C[C@H](O)[C@@H](O)[C@H](O)[C@H]1CO` [N-hexyl-deoxynojirimycin, reference compound], the “inhibition of glucosylceramidase, in words” value on glucosylceramidase [2] is recorded as “less potent inhibitor”.
Broadly, the IC50 is the concentration at which inhibition is half-maximal. Turning to `O=C(CCCC(=O)N1C[C@H](O)[C@@H](O)[C@H](O)[C@H]1CO)OCC12CC3CC(CC(C3)C1)C2` [P4], the IC50 is 200 µM at glucosylceramidase [3] (setting [8]) and 5 µM on glucocerebrosidase [5] (setting [10]). For the same compound, the Ki at glucosylceramidase [2] (setting [9]) is 461 µM; in test [4], 19.7 µM; at lysosomal a-glucosidase [1] (setting [11]) it was above 100 µM; at glucocerebrosidase [6], 3.2 µM. For the same compound, at lysosomal a-glucosidase [1], the “inhibition of lysosomal a-glucosidase, in words” value is reported as “very poor inhibitors”.
`CC(C)CCC[C@@H](C)[C@H]1CC[C@H]2[C@@H]3CC=C4C[C@@H](OC(=O)CCCC(=O)N5C[C@H](O)[C@@H](O)[C@H](O)[C@H]5CO)CC[C@]4(C)[C@H]3CC[C@]12C` [P9]: the Ki is above 100 µM on glucosylceramidase [2] (setting [9]), 51.6 µM in test [4], above 100 µM on lysosomal a-glucosidase [1] (setting [11]) and above 100 µM on glucocerebrosidase [6]. The “inhibition of lysosomal a-glucosidase, in words” value at lysosomal a-glucosidase [1] is listed as “very poor inhibitors”.
In the case of `O=C(CCCC(=O)N1C[C@H](O)[C@@H](O)[C@H](O)[C@H]1CO)OC12CC3CC(CC(C3)C1)C2` [P11], the IC50 at glucosylceramidase [3] (setting [8]) was found to be 200 µM; on glucocerebrosidase [5] (setting [10]), 8 µM. Also, the Ki at glucosylceramidase [2] (setting [9]) is 306 µM; in test [4] it was 113 µM; on lysosomal a-glucosidase [1] (setting [11]), above 100 µM; at glucocerebrosidase [6] it was 4.1 µM. Also, the “inhibition of lysosomal a-glucosidase, in words” value at lysosomal a-glucosidase [1] was “very poor inhibitors”.
For the compound `CC(C)CCC[C@@H](C)[C@H]1CC[C@H]2[C@@H]3CC[C@H]4C[C@@H](OC(=O)CCCC(=O)N5C[C@H](O)[C@@H](O)[C@H](O)[C@H]5CO)CC[C@]4(C)[C@H]3CC[C@]12C` [P13], the Ki on glucosylceramidase [2] (setting [9]) was above 100 µM; in test [4] it was 11.2 µM; on lysosomal a-glucosidase [1] (setting [11]) it was above 100 µM; at glucocerebrosidase [6], above 100 µM. In addition, on lysosomal a-glucosidase [1], the “inhibition of lysosomal a-glucosidase, in words” value is “very poor inhibitors”.
In the case of `O=C(CCCC(=O)N1C[C@H](O)[C@@H](O)[C@H](O)[C@H]1CO)Oc1cc2ccccc2c2ccccc12` [P16], the Ki in test [4] is 11.6 µM; at lysosomal a-glucosidase [1] (read-out: apparent Ki A-GLUCOSIDASE, 4MU-a-glucoside, pH 4.0), above 100 µM; at glucocerebrosidase [6], 0.44 µM. Moreover, at glucocerebrosidase [5] (read-out: IC50 GLUCOCEREBROSIDASE, intact melanoma cells), the IC50 was above 1 µM. In addition, the “inhibition of lysosomal a-glucosidase, in words” value at lysosomal a-glucosidase [1] is “very poor inhibitors”.
`OCC1C(O)C(O)C(O)CN1CCCCCOCC12CC3CC(CC(C3)C1)C2` (stereo not shown) [P21, N-(5-adamantane-1-yl-methoxy-pentyl) deoxynojirimycin]: the “inhibition of glycogen synthase” value at glycogen synthase was “no inhibition”. Also, on lysosomal a-glucosidase [7], the “inhibition of lysosomal a-glucosidase” value is “no inhibition”. Also, the activity at 2.5 pM with chitotriosidase (0.0025 nM) was 105%. Moreover, in the test with chitotriosidase (0.05 nM), the activity at 50 pM was 72%. Further, the activity at 0.001 µM in the test with chitotriosidase (1 nM) is 64%.
Take `CCCCC(=O)N1C[C@H](O)[C@@H](O)[C@H](O)[C@H]1CO` [PENTANOYLDNJ, N-pentanoyl DNJ, reference compound]: the half-inhibitory concentration (IC50) was 30 µM on glucosylceramidase [3] (setting [8]) and above 1 µM on glucocerebrosidase [5] (setting [10]). The Ki is 84 µM at glucosylceramidase [2], 670 µM in test [4], 2.39 µM at lysosomal a-glucosidase [1] (setting [11]) and 83 µM on glucocerebrosidase [6].
Turning to `CCCCCN1C[C@H](O)[C@@H](O)[C@H](O)[C@H]1CO` [PENTYLDNJ, N-pentyl DNJ, reference compound], the IC50 is 0.15 µM at glucosylceramidase [3] (IC50 GLUCOSYLCERAMIDASE) and above 1 µM at glucocerebrosidase [5] (setting [10]). Besides, the Ki at glucosylceramidase [2] came out at 0.038 µM; in test [4], 249 µM; at lysosomal a-glucosidase [1] it was 3.74 µM; on glucocerebrosidase [6], 8.5 µM. Also, on glucosylceramidase [2], the “inhibition of glucosylceramidase, in words” value is “Optimal inhibition”.
As to `CCCN1C[C@H](O)[C@@H](O)[C@H](O)[C@H]1CO` [PROPYLDNJ, N-propyl DNJ, reference compound], the IC50 against glucosylceramidase [3] (IC50 GLUCOSYLCERAMIDASE) is 0.65 µM; on glucocerebrosidase [5] it was above 1 µM. The Ki was determined as 0.123 µM on glucosylceramidase [2], 546 µM in [4], 9.24 µM on lysosomal a-glucosidase [1] and 332 µM on glucocerebrosidase [6].
